US20240016781A1, “TREATMENT OF KRAS MUTANT CANCERS” (MEI Pharma, Inc., priority 2020, published 2024)
Where “and” joins values, the source holds several entries; their conditions need not be identical. Equal entries are not always repeated.

How the values were obtained:
Experiment in all cases: 72-hour CellTiter-Glo 2.0 growth inhibition screen (single agent, 9x9 combination dose matrix)
Assay type in all cases: cell-based
NCI-H23 = system: NCI-H23
Experimental: (§1) Growth inhibition was determined using a 72-hour CellTiter-Glo®2.0 proliferation assay. Combination format was a 9×9 dose matrix. Six of the 20 cell lines received the original two combinations whilst the remaining 14 cell lines received two additional combinations resulting in four combinations in total. Results have been supplied as both Chalice Analyzer files (.mcc) and raw luminescence data.
(§2) Cell lines that have been preserved in liquid nitrogen are thawed and expanded in growth media (see Appendix I). Once cells have reached expected doubling times, screening begins. Cells are seeded in 25 μl of growth media in black 384-well tissue culture treated plates at 500 cells per well (as noted in Analyzer). Cells are equilibrated in assay plates via centrifugation and placed at 37° C. 5% CO2 for twenty-four hours before treatment. […] Compounds are transferred to assay plates using and Echo acoustic liquid handling system. […] of each compound was added at the appropriate concentration for all combination dose points. Therefore, final assay volume would be 25.05 μl. Assay plates are incubated with compound for 3 days and are then analyzed using CellTiter-Glo 2.0. All data points are collected via automated processes and are subject to quality control and analyzed.
(§3) If T≥V_0:100*(1−(T−V_0)/(V−V_0)) • where T is the signal measure for a test article, V is the untreated/vehicle-treated control measure, and Vo is the untreated/vehicle control measure at time zero (also colloquially referred as TO plates). This formula is derived from the Growth Inhibition calculation used in the National Cancer Institute's NCI-60 high throughput screen. For the purposes of this disclosure, all data analysis was performed in Growth Inhibition (except where noted).
(§4) Inhibition is also provided as a measure of cell viability. […] Inhibition of 100% represents no doubling of cell numbers during the treatment window. Both cytostatic and cytotoxic treatments can yield an Inhibition percentage of 100%. Inhibition percentage is calculated as the following: […]
(§5) The fractional inhibition for each component agent and combination point in the matrix is calculated relative to the median of all untreated/vehicle-treated control wells. The Synergy Score equation integrates the experimentally-observed activity volume at each point in the matrix in excess of a model surface numerically derived from the activity of the component agents using the Loewe model for additivity. Additional terms in the Synergy Score equation (above) are used to normalize for various dilution factors used for individual agents and to allow for comparison of synergy scores across an entire experiment. The inclusion of positive inhibition gating or an Idata multiplier removes noise near the zero-effect level, and biases results for synergistic interactions at that occur at high activity levels. Combinations with higher maximum Growth Inhibition (GI) effects or those which are synergistic at low concentrations will have higher Synergy Scores.
(§6) The CI is a rough estimate of how much drug was needed in combination relative to the single agent doses required to achieve the chosen effect level. CI values in the range of 0.5-0.7 are typical for in vitro measurements of current clinical combinations. The CI error (σCI) is calculated using standard error propagation through the CI calculation based on the isobologram errors. In the Chalice Analyzer, the Best CI is reported from the many CI values calculated for each Icut crossing combination. Among all the measured CI values, the one with the largest single-to-noise level (1−CI)/σCI is reported as the Best CI. Best CI Level is the effect level from which the CI is calculated.

SW48 = system: SW48
Experimental: as §1, §2, §3, §4, §5, §6

MIA PaCa-2 = system: MIA PaCa-2
Experimental: as §1, §2, §3, §4, §5, §6

AsPC-1 = system: AsPC-1
Experimental: as §1, §2, §3, §4, §5, §6

SW48 KRAS (G12C/+) = system: SW48 KRAS (G12C/+)
Experimental: as §1, §2, §3, §4, §5, §6

NCI-H2030 = system: NCI-H2030
Experimental: as §1, §2, §3, §4, §5, §6

HCC44 = details: HCC44, Lung; growth inhibition (GI), AUC, single agent, 72 h
Experimental: as §1, §2, §3, §4, §5, §6

Panc 04.03 = system: Panc 04.03
Experimental: as §1, §2, §3, §4, §5, §6

TOV-21G = details: TOV-21G, Ovary; growth inhibition (GI), AUC, single agent, 72 h
Experimental: as §1, §2, §3, §4, §5, §6

Gp2D = system: Gp2D
Experimental: as §1, §2, §3, §4, §5, §6

LS-513 = system: LS-513
Experimental: as §1, §2, §3, §4, §5, §6

HCC1171 = details: HCC1171, Lung; growth inhibition (GI), AUC, single agent, 72 h
Experimental: as §1, §2, §3, §4, §5, §6

KYSE-410 = system: KYSE-410
Experimental: as §1, §2, §3, §4, §5, §6

NCI-H1373 = system: NCI-H1373
Experimental: as §1, §2, §3, §4, §5, §6

NCI-H1792 = system: NCI-H1792
Experimental: as §1, §2, §3, §4, §5, §6

HPAF-II = system: HPAF-II
Experimental: as §1, §2, §3, §4, §5, §6

NCI-H358 = system: NCI-H358
Experimental: as §1, §2, §3, §4, §5, §6

SW837 = system: SW837
Experimental: as §1, §2, §3, §4, §5, §6

For C=C(F)C(=O)N1CCN(c2nc(OC[C@@H]3CCCN3C)nc3c2CCN(c2cccc4cccc(Cl)c24)C3)C[C@@H]1CC#N [MRTX849], the HSA volume (NCI-H23) was 5.10 and 2.97, the “Loewe Volume” value (NCI-H23) was 4.80 and 2.46 and the “Response Area” value (NCI-H23; NCl-H23, Lung, growth inhibition (GI), AUC, single agent, 72 h) was 4.15. For the same compound, the “Bliss Volume” value (SW48) was 9.14 and 4.79, the HSA volume (SW48) was 3.40 and 2.30 and the “Loewe Volume” value (SW48) was 6.95 and 4.49. For the same compound, the “Response Area” value (SW48; SW48, Colorectal, growth inhibition (GI), AUC, single agent, 72 h) was 2.78, the HSA volume (MIA PaCa-2) was 5.25 and 2.97 and the “Loewe Volume” value (MIA PaCa-2) was 4.29 and 2.30. For the same compound, the “Loewe Volume” value (AsPC-1) was 0.71 and 0.37, the “Response Area” value (AsPC-1; AsPC-1, Pancreas, growth inhibition (GI), AUC, single agent, 72 h) was 2.27 and the HSA volume (SW48 KRAS (G12C/+)) was 4.53. The “Loewe Volume” value (SW48 KRAS (G12C/+)) was 4.75 and 2.96, the “Response Area” value (SW48 KRAS (G12C/+); SW48 KRAS (G12C/+), Colorectal, growth inhibition (GI), AUC, single agent, 72 h) was 2.88 and the HSA volume (NCI-H2030) was 1.90 and 1.28. The “Response Area” value (NCI-H2030; NCl-H2030, Lung, growth inhibition (GI), AUC, single agent, 72 h) was 2.65, the “Response Area” value (HCC44) was 3.02 and the HSA volume (Panc 04.03) was 0.64 and 0.37. The “Loewe Volume” value (Panc 04.03) was 3.31 and 1.76, the “Response Area” value (Panc 04.03; Panc 04.03, Pancreas, growth inhibition (GI), AUC, single agent, 72 h) was 2.20 and the “Response Area” value (TOV-21G) was 2.28. For the same compound, the “Loewe Volume” value (Gp2D) was 0.46 and 0.37, the “Response Area” value (Gp2D; Gp2D, Colorectal, growth inhibition (GI), AUC, single agent, 72 h) was 1.86 and the HSA volume (LS-513) was 0.51 and 0.34. For the same compound, the “Loewe Volume” value (LS-513) was 0.85 and 0.46, the “Response Area” value (LS-513; LS-513, Colorectal, growth inhibition (GI), AUC, single agent, 72 h) was 1.56 and the “Response Area” value (HCC1171) was 5.95. For the same compound, the “Bliss Volume” value (KYSE-410) was 7.25 and 5.69, the HSA volume (KYSE-410) was 2.25 and 1.80 and the “Loewe Volume” value (KYSE-410) was 6.19 and 5.14. For the same compound, the “Response Area” value (KYSE-410; KYSE-410, Esophageal, growth inhibition (GI), AUC, single agent, 72 h) was 2.24, the HSA volume (NCI-H1373) was 2.06 and 1.03 and the “Response Area” value (NCI-H1373; NCl-H1373, Lung, growth inhibition (GI), AUC, single agent, 72 h) was 4.82. The HSA volume (NCI-H1792) was 4.71 and 3.40, the “Loewe Volume” value (NCI-H1792) was 5.13 and 3.37 and the “Response Area” value (NCI-H1792; NCl-H1792, Lung, growth inhibition (GI), AUC, single agent, 72 h) was 3.02. The HSA volume (HPAF-II) was 1.34 and 0.93, the “Response Area” value (HPAF-II; HPAF-II, Pancreas, growth inhibition (GI), AUC, single agent, 72 h) was 2.04 and the HSA volume (NCI-H358) was 2.90. The “Response Area” value (NCI-H358; NCl-H358, Lung, growth inhibition (GI), AUC, single agent, 72 h) was 5.85, the HSA volume (SW837) was 6.87 and 4.50 and the “Loewe Volume” value (SW837) was 5.57. The “Response Area” value (SW837; SW837, Colorectal, growth inhibition (GI), AUC, single agent, 72 h) was 5.55.
